pIC50: −log10 of the molar value.
The compounds below were run against IDO1 (Homo sapiens, UniProt P14902) (assay: IDO1 Cellular Assay in HeLa Cells Stimulated with IFNγ). Conditions: about 48 hours, read-out: Hela IC50.
Assay type: cell-based

Sequence of IDO1 (P14902 whole entry): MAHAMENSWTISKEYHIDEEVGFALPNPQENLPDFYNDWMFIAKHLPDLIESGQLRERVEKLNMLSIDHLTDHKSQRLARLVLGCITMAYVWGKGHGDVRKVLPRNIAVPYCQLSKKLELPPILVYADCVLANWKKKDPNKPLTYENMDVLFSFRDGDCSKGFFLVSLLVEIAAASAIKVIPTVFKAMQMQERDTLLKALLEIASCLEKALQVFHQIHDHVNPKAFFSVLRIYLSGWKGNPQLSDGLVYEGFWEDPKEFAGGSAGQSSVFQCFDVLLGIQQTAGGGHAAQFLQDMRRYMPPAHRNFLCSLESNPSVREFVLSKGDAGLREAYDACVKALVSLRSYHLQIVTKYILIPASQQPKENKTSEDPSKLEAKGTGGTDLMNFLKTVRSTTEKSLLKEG

pIC50 | Compound
6.64 | CC(NC(=O)c1ccc(F)cc1)c1ccc2c(n1)C(F)CCN2C(=O)C1CC1 (single isomer, unassigned) [Example 204, N-(1-(5-(cyclopropanecarbonyl)-8-fluoro-5,6,7,8-tetrahydro-1,5-naphthyridin-2-yl)ethyl)-4-fluorobenzamide]
7.37 | CC(C)CC(=O)N1CCCc2cc([C@H](C)NC(=O)c3ccc(Cl)cc3)ccc21 (single isomer, unassigned) [Example 27]
7.42 | CC(C(=O)Nc1ccc(F)cc1)c1ccc2c(n1)CCCN2C(=O)C1CCCCO1 (stereo not shown) [Example 158, N-(4-fluorophenyl)-2-[5-(oxane-2-carbonyl)-5,6,7,8-tetrahydro-1,5-naphthyridin-2-yl]propanamide]
6.26 | CC(NC(=O)c1ccc(F)cc1)c1ccc2c(c1)CCCN2C(CO)c1cccc(Cl)c1 (single isomer, unassigned) [Example 95]
7.70 | COCC(=O)N1CCCc2cc(C(C)C(=O)Nc3ccc(F)cc3)ccc21 (stereo not shown) [Example 59, N-(4-fluorophenyl)-2-[1-(methoxyacetyl)-1,2,3,4-tetrahydroquinolin-6-yl]propanamide]
8.66 | CC(NC(=O)c1ccc(F)cc1)c1ccc2c(n1)CCCN2C(=O)c1ncccc1F (stereo not shown) [Example 283, 2-(1-(4-fluorobenzamido)ethyl)-5-(3-fluoropicolinoyl)-5,6,7,8-tetrahydro-1,5-naphthyridin-1-ium 2,2,2-trifluoroacetate]
6.93 | O=C(NCc1ccc2c(c1)CCCN2C(=O)c1cccc(Cl)c1)c1cccc(Cl)c1 [Example 16, 3-chloro-N-((1-(3-chlorobenzoyl)-1,2,3,4-tetrahydroquinolin-6-yl)methyl)benzamide]
8.31 | N#Cc1cccc(C(=O)N2CCCc3cc(C4(C(=O)Nc5ccc(F)cn5)CCC4)ccc32)c1 [Example 108, 1-[1-(3-cyanobenzene-1-carbonyl)-1,2,3,4-tetrahydroquinolin-6-yl]-N-(5-fluoropyridin-2-yl)cyclobutane-1-carboxamide]
5.60 | C[C@H](C(=O)Nc1ccc(F)cc1)c1ccc2c(c1)CCCN2C(=O)CC#N [Example 85, (2S)-2-[1-(cyanoacetyl)-1,2,3,4-tetrahydroquinolin-6-yl]-N-(4-fluorophenyl)propanamide]
7.31 | CC(NC(=O)c1ccc(F)cc1)c1ccc2c(n1)CCCN2C(=O)[C@@H]1CCCCO1 (stereo partly drawn) [Example 132, 4-fluoro-N-(1-(5-((S)-tetrahydro-2H-pyran-2-carbonyl)-5,6,7,8-tetrahydro-1,5-naphthyridin-2-yl)ethyl)benzamide]
8.80 | O=C(C1CCCCO1)N1CCCc2nc(C3(C(=O)Nc4ccc(F)cc4)CCC3)ccc21 (single isomer, unassigned) [Example 178, N-(4-fluorophenyl)-1-[5-(oxane-2-carbonyl)-5,6,7,8-tetrahydro-1,5-naphthyridin-2-yl]cyclobutane-1-carboxamide]
7.96 | C[C@H](C(=O)Nc1ccc(F)cc1)c1ccc2c(c1)CCCN2C(=O)CC1CC1 [Example 82, (2S)-2-[1-(cyclopropylacetyl)-1,2,3,4-tetrahydroquinolin-6-yl]-N-(4-fluorophenyl)propanamide]
8.26 | CC(NC(=O)c1ccc(F)cc1)c1ccc2c(n1)CCCN2C(=O)OCCF (stereo not shown) [Example 210, 2-fluoroethyl 6-{1-[(4-fluorobenzene-1-carbonyl)amino]ethyl}-3,4-dihydro-1,5-naphthyridine-1(2H)-carboxylate]
7.42 | Cc1n[nH]c(C(=O)N2CCCc3cc(C(C)C(=O)Nc4ccc(F)cc4)ccc32)n1 (stereo not shown) [Example 42, N-(4-fluorophenyl)-2-[1-(3-methyl-1H-1,2,4-triazole-5-carbonyl)-1,2,3,4-tetrahydroquinolin-6-yl]propanamide]
8.57 | CCn1cc(C(=O)N2CCCc3cc(C4(C(=O)Nc5ccc(F)cc5)CCC4)ccc32)cn1 [Example 112, 1-[1-(1-ethyl-1H-pyrazole-4-carbonyl)-1,2,3,4-tetrahydroquinolin-6-yl]-N-(4-fluorophenyl)cyclobutane-1-carboxamide]
8.03 | CC(C)C(=O)N1CCCc2cc([C@H](C)C(=O)Nc3ccc(F)cc3)ccc21 [Example 83, (2S)-N-(4-fluorophenyl)-2-[1-(2-methylpropanoyl)-1,2,3,4-tetrahydroquinolin-6-yl]propanamide]
8.29 | CC(C(=O)Nc1ccc(F)cc1)c1ccc2c(n1)CCCN2C(=O)C1CCOCC1 (stereo not shown) [Example 167, N-(4-fluorophenyl)-2-[5-(oxane-4-carbonyl)-5,6,7,8-tetrahydro-1,5-naphthyridin-2-yl]propanamide]
6.21 | CC(NC(=O)c1ccc(Cl)cc1)c1ccc2c(n1)CCCN2C(=O)C1CC1 (single isomer, unassigned) [Example 126, 4-chloro-N-{1-[5-(cyclopropanecarbonyl)-5,6,7,8-tetrahydro-1,5-naphthyridin-2-yl]ethyl}benzamide]
8.23 | Cc1nc(C(=O)N2CCCc3cc(C(C)C(=O)Nc4ccc(F)cc4)ccc32)co1 (stereo not shown) [Example 45, N-(4-fluorophenyl)-2-[1-(2-methyl-1,3-oxazole-4-carbonyl)-1,2,3,4-tetrahydroquinolin-6-yl]propanamide]
7.58 | O=C(Nc1ccc(F)cn1)C1(c2ccc3c(c2)CCCN3S(=O)(=O)C2CC2)CCC1 [Example 124, 1-[1-(cyclopropylsulfonyl)-1,2,3,4-tetrahydroquinolin-6-yl]-N-(5-fluoropyridin-2-yl)cyclobutane-1-carboxamide]
8.09 | CC(C(=O)Nc1ccc(F)cc1)c1ccc2c(n1)CCCN2C(=O)C1CCCCO1 (single isomer, unassigned) [Example 160, N-(4-fluorophenyl)-2-[5-(oxane-2-carbonyl)-5,6,7,8-tetrahydro-1,5-naphthyridin-2-yl]propanamide]
8.77 | CC(NC(=O)c1ccc(F)cc1)c1ccc2c(n1)CCCN2C(=O)c1cccc(C#N)c1 (stereo not shown) [Example 147, N-{1-[5-(3-cyanobenzene-1-carbonyl)-5,6,7,8-tetrahydro-1,5-naphthyridin-2-yl]ethyl}-4-fluorobenzamide]
7.51 | CC(C)C(C(=O)Nc1ccc(F)cc1)c1ccc2c(n1)CCCN2C(=O)C1CC1 (stereo not shown) [Example 264, 2-(5-(cyclopropanecarbonyl)-5,6,7,8-tetrahydro-1,5-naphthyridin-2-yl)-N-(4-fluorophenyl)-3-methylbutanamide]
8.41 | Cc1cc(C(=O)N2CCCc3cc(C(C)C(=O)Nc4ccc(F)cc4)ccc32)no1 (stereo not shown) [Example 46, N-(4-fluorophenyl)-2-[1-(5-methyl-1,2-oxazole-3-carbonyl)-1,2,3,4-tetrahydroquinolin-6-yl]propanamide]
8.72 | COC(=O)N1CCCc2nc(C(C)C(=O)Nc3ccc(F)cc3)ccc21 (stereo not shown) [Example 220, methyl 6-{1-[(4-fluorophenyl)amino]-1-oxopropan-2-yl}-3,4-dihydro-1,5-naphthyridine-1(2H)-carboxylate]
7.49 | C[C@H](C(=O)Nc1ccc(F)cc1)c1ccc2c(c1)CCCN2C(=O)[C@@H]1CCCO1 [Example 84, (2S)-N-(4-fluorophenyl)-2-{1-[(2S)-oxolane-2-carbonyl]-1,2,3,4-tetrahydroquinolin-6-yl]propanamide]
6.38 | C[C@@H](NC(=O)c1ccc(F)cc1)c1ccc2c(n1)CCCN2C(=O)[C@@H]1CC1(F)F (single isomer, unassigned) [Example 135]
8.83 | O=C(OC1CC1)N1CCCc2nc(C3(C(=O)Nc4ccc(Cl)cc4)COC3)ccc21 [compound 398, cyclopropyl 6-(3-((4-chlorophenyl)carbamoyl)oxetan-3-yl)-3,4-dihydro-1,5-naphthyridine-1(2H)-carboxylate]
8.35 | C[C@H](C(=O)Nc1ccc(F)cc1)c1ccc2c(c1)CCCN2C(=O)C1CCC1 [Example 80, (2S)-2-[1-(cyclobutanecarbonyl)-1,2,3,4-tetrahydroquinolin-6-yl]-N-(4-fluorophenyl)propanamide]

Same assay, conditions: read-out: Hela IC50

pIC50 | Compound
9.14 | O=C(OC1CC1)N1CCCc2nc(C3(C(=O)Nc4ccc(Cl)cc4)CCC3)ccc21 [Example 411, cyclopropyl 6-(1-((4-chlorophenyl)carbamoyl)cyclobutyl)-3,4-dihydro-1,5-naphthyridine-1(2H)-carboxylate]
5.66 | CC(NC(=O)c1ccc(F)cc1)c1ccc2c(n1)CCCN2C(=O)OCCN(C)C (stereo not shown) [Example 329, 2-(dimethylamino)ethyl 6-(1-(4-fluorobenzamido)ethyl)-3,4-dihydro-1,5-naphthyridine-1(2H)-carboxylate]
7.11 | CC(C)Oc1cccc(N2CCCc3nc(C(C)NC(=O)c4ccc(Cl)cc4)ccc32)n1 (stereo not shown) [Example 353, 4-chloro-N-(1-(5-(6-isopropoxypyridin-2-yl)-5,6,7,8-tetrahydro-1,5-naphthyridin-2-yl)ethyl)benzamide]
8.74 | CC(C(=O)Nc1ccc(F)cc1)c1ccc2c(n1)CCCN2c1ccnc(C2CC2)n1 (stereo not shown) [Example 367, 2-(5-(2-cyclopropylpyrimidin-4-yl)-5,6,7,8-tetrahydro-1,5-naphthyridin-2-yl)-N-(4-fluorophenyl)propanamide]
5.74 | CC(NC(=O)c1ccc(F)cc1)c1ccc2c(n1)CCCN2c1ccn2ncnc2n1 (stereo not shown) [Example 370, N-(1-(5-([1,2,4]triazolo[1,5-a]pyrimidin-5-yl)-5,6,7,8-tetrahydro-1,5-naphthyridin-2-yl)ethyl)-4-fluorobenzamide]
9.19 | CC(NC(=O)c1ccc(F)cc1)c1ccc2c(n1)CCCN2C(=O)OC1CCCC1 (stereo not shown) [Example 314, cyclopentyl 6-(1-(4-fluorobenzamido)ethyl)-3,4-dihydro-1,5-naphthyridine-1(2H)-carboxylate]
6.32 | CC(NC(=O)c1ccc(F)cc1)c1ccc2c(n1)CCCN2C(=O)OCCn1ccnc1 (stereo not shown) [Example 328, 2-(1H-imidazol-1-yl)ethyl 6-(1-(4-fluorobenzamido)ethyl)-3,4-dihydro-1,5-naphthyridine-1(2H)-carboxylate]
6.01 | COc1cccc(C(=O)NC(C)c2ccc3c(n2)CCCN3C(=O)OC2CC2)c1 (stereo not shown) [Example 336, cyclopropyl 6-(1-(3-methoxybenzamido)ethyl)-3,4-dihydro-1,5-naphthyridine-1(2H)-carboxylate]
